Literature values, collected in patent publication US9072718B2, “Burdock fruit extract containing arctigenin and method for producing same” (Kracie Pharma, Ltd., priority 2010, dated 2015).

Tests used:
[1] = stated without a test
[2] = test system: pancreas cancer cell line PANC-1; details: PANC-1, undernutrition condition; Non-patent document 1

Row | solubility in water [1] | Compound | effect on viability of tumor cells in the undernutrition condition [2]
1 | hardly soluble in water | COc1cc(C[C@H]2C(=O)OC[C@@H]2Cc2ccc(OC)c(OC)c2)ccc1O [arctigenin] | effective
2 | hardly soluble in water | COc1ccc(C[C@H]2COC(=O)[C@@H]2Cc2ccc(O[C@@H]3O[C@H](CO)[C@@H](O)[C@H](O)[C@H]3O)c(OC)c2)cc1OC [arctiin] | –
